Source: patent publication US20120059005A1, “COMBINATION OF (A) A PHOSPHOINOSITIDE 3-KINASE INHIBITOR AND (B) AN ANTIDIABETIC COMPOUND FOR USE IN THE TREATMENT OF PROLIFERATIVE DISEASES” (NOVARTIS AG, priority 2009, published 2012)
Read-outs that look alike come from different tables or passages of the source.

Tests used:
[1] = tested on: H520 non-small cell lung tumors; experiment: H520 xenograft 20-day tumor growth inhibition assay; format: in vivo, nude mice; conditions: for Mean Tumor Vol. Change / Regression / T/C: Day 20
Experimental: EGFR-null H520 human non-small cell lung cancer (NSCLC) cells are treated with different doses of 2-Methyl-2-[4-(3-methyl-2-oxo-8-quinolin-3-yl-2, 3-dihydro-imidazo[4,5-c]quinolin-1-yl)-phenyl]-propionitrile monotosylate salt (also known as COMPOUND A) or 5-(2,6-di-morpholin-4-yl-pyrimidin-4-yl)-4-trifluoromethyl-pyridin-2-ylamine hydrochloride salt (also known as COMPOUND C), a single dose of metformin or both agents in combination, The H520 human NSCLC cells (NCl-H520, ATCC-HTB-182, available from American Type Culture Collection, Rockville, Md. US) are isolated from a sample of a lung mass taken from a patient with squamous cell carcinoma of the lung (Banks-Schlegel et at Cancer Res, 45(3): 1187-1197 (1985).
H520 tumor cells are grown in RPMI 1640 medium containing 100 units/mL penicillin G sodium, 100 μg/ML streptomycin sulfate, and 25 µg/mL gentamicin. The medium is supplemented with 10% fetal bovine serum, 2 mM glutamine, and 1 mM sodium pyruvate, and buffered with 10 mM HEPES and 0.075% sodium bicarbonate. The cells are cultured in tissue culture flasks in a humidified incubator at 37° C., in an atmosphere of 5% CO2 and 95% air. The cells are harvested for injection into 8-week old female nu/nu (nude) mice (Harlan Laboratories, Indianapolis, Ind.) by detaching the monolayers with 1× trypsin and resuspending at 5×10^7cells/mL in phosphate-buffered saline containing 50% Matrigel.
(§1) 0.2 mL of H520 tumor cell suspension (1×10^7 cells) is injected subcutaneously in the right flank of 8-week old female nu/nu (nude) mice (Harlan Laboratories, Indianapolis, Ind.) having a body weight (BW) range of 18.1-26.9 g on Day 1 of the study. Tumors are monitored twice weekly and then daily as their mean volume approaches 120-180 mm^3. […] Tumor weight can be estimated with the assumption that 1 mg is equivalent to 1 mrn^3 of tumor volume.
(§2) The 11 groups of nude mice are treated as follows. One group of eight mice serves as Controls (C or Control) for all analyses and is administered intraperitoneally (i.p.) 50 mM sodium acetate at pH 4 (Vehicle 1) and then administered by oral gavage (p.o.) a composition comprising 10% N-methylpyrrolidone: 90% polyethylene glycol 300 (PEG 300) (Vehicle 2). […] Metformin is dissolved in 50 mM sodium acetate at pH 4 for dosing,
(§3) Compound C is stored at −20° C. protected from light. Stock solutions (10×) in 100% N-methylpyrrolidone (NMP) are prepared every five days, aliquotted, and stored in the dark at room temperature. On each treatment day, stock solution aliquots are diluted with polyethylene glycol (PEG300) to provide the formulated drug (Compound A or Compound C) in 10% NMP: 90% PEG300, Dosing solutions are protected from light and the formulated drug is administered within 1 hour after preparation.
(§4) For combination therapies, Compound A or Compound C is administered by oral gavage (p.o.) within 30 minutes after the intraperitoneal (i.p.) administration of metformin, except on Day 20 when Compound A or Compound C is given immediately after metformin.
(§5) Paclitaxel (Natural Pharmaceuticals, Inc., Beverly, Mass., USA) is administered by bolus tail-vein injections (i.v.) once daily on alternate days for five doses. Paclitaxel is dissolved in 50% ethanol and 50% Cremophor® EL to prepare a 10× stock solution stored at room temperature. On each day of dosing, an aliquot of the pad itaxel stock solution is diluted with 5% dextrose in water to yield a dosing solution containing 5% ethanol and 5% Cremophor® EL.
Statistical and graphical analyses was conducted by determining the difference in tumor volume between Day 1 (the start of dosing) and the endpoint day for each animal that remained on study on Day 20. Antitumor activity is expressed as % T/C (comparing the mean tumor volume change between the endpoint day and Day 1 for the treatment group to the Control). A T/C≦40% is classified as potential therapeutically active.

[2] = Experimental: as §1, §2, §3, §4, §5
[3] = remark: listed apart in the source
Experimental: 0.2 mL of H460 tumor cell suspension (1×10^7 cells) is injected subcutaneously in the right flank of 9-week old female nu/nu (nude) mice (Harlan Laboratories, Indianapolis, Ind.) having a body weight (BW) range of 18.1-26.9 g on Day 1 of the study. Tumors are monitored twice weekly and then daily as their mean volume approaches 100-150 mm^3. Ten days after implantation, the mice are sorted into 11 groups of eight mice having individual tumor sizes of 75-196 mm^3 and a group mean tumor size of 119-122 mm^3. Tumor volume in mm^3 is determined using the formula [(width)^2×(length)]/2, where width width of the tumor in mm and length length of the tumor in mm. Tumor weight can be estimated with the assumption that 1 mg is equivalent to 1 mm^3 of tumor volume.
as §2, with “N-methylpyrrolidone” for “N-methylpyrrolidone:”, “(PEG300)” for “(PEG 300)”, “dosing.” for “dosing,”
Compound A is stored at −20° C. Compound C is stored at −20° C. protected from light. Stock solutions (10×) in 100% N-rnethylpyrrolidone (NMP) are prepared every five days, aliquotted, and stored in the dark at room temperature. On each treatment day, stock solution aliquots are diluted with polyethylene glycol (PEG300) to provide the formulated drug (Compound A or Compound C) in 10% NMP: 90% PEG300. Dosing solutions are protected from light, and the formulated drug is administered within 1 hour after preparation.
For combination therapies, Compound A or Compound C are administered by oral gavage (p.o.) within 30 minutes after the intraperitoneal (i.p.) administration of metformin, except on Day 20 when Compound A or Compound C is given immediately after metformin.
as §5, with “50% Crernophor®” for “50% Cremophor®”, “the paclitaxel” for “the pad itaxel”
In all groups, the dosing volume of 10 mL/kg (0.2 mL/20 g mouse) is scaled to the weight of each animal as determined on the day of dosing, except on weekends when the previous BW is carried fontvard.

[4] = Paclitaxel 30 mg/kg i.v., 1x on alternate days for 5 doses
[5] = Compound C 32.7 mg/kg p.o., 1x daily
[6] = Compound C 54.4 mg/kg p.o., 1x daily until day 7 (stopped due to toxicity)
[7] = Compound A 41.1 mg/kg p.o., 1x daily
[8] = Compound A 68.5 mg/kg p.o., 1x daily
[9] = female, nu/nu (nude), mouse, in vivo, po, 41.1 mg/kg
[10] = female, nu/nu (nude), mouse, in vivo, po, 68.5 mg/kg
[11] = Metformin 192.3 mg/kg i.p., 1x daily

SMILES: CC(=O)O[C@H]1C(=O)[C@@]2(C)[C@H]([C@H](OC(=O)c3ccccc3)[C@]3(O)C[C@H](OC(=O)[C@H](O)[C@@H](NC(=O)c4ccccc4)c4ccccc4)C(C)=C1C3(C)C)[C@]1(OC(C)=O)CO[C@@H]1C[C@@H]2O [Paclitaxel, reference compound]
- Mean Tumor Vol. Change [1, 4]: 53 mm^3
- Regression [1, 4]: None
- T/C [1, 4]: 5%
- T/C ([1]; Paclitaxel 30 mg/kg i.v., 1x on alternate days for 5 doses, listed as paclitaxel): 5%
- Dead/Total [2, 4]: 0/8
- Dead/Total [3, 4]: 0/8

SMILES: Nc1cc(C(F)(F)F)c(-c2cc(N3CCOCC3)nc(N3CCOCC3)n2)cn1 [Compound C, 5-(2,6-di-morpholin-4-yl-pyrimidin-4-yl)-4-trifluoromethyl-pyridin-2-ylamine]
- Mean Tumor Vol. Change [1, 5]: 542 mm^3
- Regression [1, 5]: None
- T/C [1, 5]: 54% (ns^†)
- Mean Tumor Vol. Change [1, 6]: 475 mm^3
- Regression [1, 6]: None
- T/C ([1]; Compound C 54.4 mg/kg p.o., 1x daily until day 7 (stopped due to toxicity), not evaluable (ne)): 48% (ne)

SMILES: Cn1c(=O)n(-c2ccc(C(C)(C)C#N)cc2)c2c3cc(-c4cnc5ccccc5c4)ccc3ncc21 [Compound A, 2-Methyl-2-[4-(3-methyl-2-oxo-8-quinolin-3-yl-2,3-dihydro-imidazo[4,5-c]quinolin-1-yl)-phenyl]-propionitrile]
- Mean Tumor Vol. Change [1, 7]: 598 mm^3
- Regression [1, 7]: None
- T/C [1, 7]: 60% (ns^†)
- Mean Tumor Vol. Change [1, 8]: 466 mm^3
- Regression [1, 8]: None
- T/C [1, 8]: 47% (ns^†)
- Dead/Total [2, 9]: 0/8
- Dead/Total [2, 10]: 1/8
- Mean Body Weight Change ([2]; mouse, in vivo, po, 68.5 mg/kg): −1.3%, Day 7
- Dead/Total [3, 9]: 0/8
- Dead/Total [3, 10]: 0/8

SMILES: CN(C)C(=N)N=C(N)N [Metformin, dimethyldiguanide, reference compound]
- Mean Tumor Vol. Change [1, 11]: 1003 mm^3
- Regression [1, 11]: None
- T/C [1, 11]: 101% (ns^†)
- modulation of tumor growth in the 20-day tumor growth inhibition assay ([1]; metformin monotherapy at 192.3 mg/kg): did not appear to modulate tumor growth
- Dead/Total [2, 11]: 0/8
- Dead/Total [3, 11]: 0/8
